# Tests used:
# Experiment in all cases: KinomeScan kinase panel
# Format in all cases: binding
# PIK4CB = target: T1, PIK4CB (Homo sapiens, UniProt Q9UBF8)
# T1 construct: purchased DiscoveRx Corporation (KinomeScan)
# Outline: (§1)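 Each kinase in a 442-kinase KinomeScan set is assayed with compound present at 1000 nM, and percentage-type inhibition at that level is given.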
# TAOK1 = target: T2, TAOK1 (Homo sapiens, UniProt Q7L7X3)
# T2 construct: purchased DiscoveRx Corporation (KinomeScan)
# Outline: as §1
# NEK5 = target: T3, NEK5 (Homo sapiens, UniProt Q6P3R8)
# T3 construct: purchased DiscoveRx Corporation (KinomeScan panel)
# Outline: as §1
# NEK4 = target: T4, NEK4 (Homo sapiens, UniProt P51957)
# T4 construct: purchased DiscoveRx Corporation (KinomeScan panel)
# Outline: as §1
# BRSK2 = target: T5, BRSK2 (Homo sapiens, UniProt Q8IWQ3)
# T5 construct: purchased DiscoveRx Corporation (KinomeScan)
# Outline: as §1
# [1] = target: T6, RPS6KA5(kin.Dom.1-N-termimal) (Homo sapiens, UniProt O75582)
# T6 construct: kin.Dom.1; purchased DiscoveRx Corporation
# Outline: as §1
# [2] = target: T7, ABL1(T315I)-phosphorylated (Homo sapiens, UniProt P00519, T315I)
# T7 construct: purchased DiscoveRx Corporation (KinomeScan)
# Outline: as §1
# AURKA = target: T8, AURKA (Homo sapiens, UniProt O14965)
# T8 construct: purchased DiscoveRx Corporation (KinomeScan)
# Outline: as §1
# MUSK = target: T9, MUSK (Homo sapiens, UniProt O15146)
# T9 construct: purchased DiscoveRx Corporation (KinomeScan)
# Outline: as §1
# MAP3K3 = target: T10, MAP3K3 (Homo sapiens, UniProt Q99759)
# T10 construct: purchased DiscoveRx Corporation (KinomeScan)
# Outline: as §1
# FGFR1 = target: T11, FGFR1 (Homo sapiens, UniProt P11362)
# T11 construct: purchased DiscoveRx Corporation (KinomeScan)
# Outline: as §1
# ACVR1 = target: T12, ACVR1 (Homo sapiens, UniProt Q04771)
# T12 construct: purchased DiscoveRx Corporation (KinomeScan)
# Outline: as §1
# ACVRL1 = target: T13, ACVRL1 (Homo sapiens, UniProt P37023)
# T13 construct: purchased DiscoveRx Corporation (KinomeScan)
# Outline: as §1
# GSK3A = target: T14, GSK3A (Homo sapiens, UniProt P49840)
# T14 construct: purchased DiscoveRx Corporation (KinomeScan)
# Outline: as §1
# FAK = target: T15, FAK (Homo sapiens, UniProt Q05397)
# T15 construct: purchased DiscoveRx Corporation (KinomeScan)
# Outline: as §1
# SIK2 = target: T16, SIK2 (Homo sapiens, UniProt Q9H0K1)
# T16 construct: purchased DiscoveRx Corporation (KinomeScan)
# Outline: as §1
# DMPK = target: T17, DMPK (Homo sapiens, UniProt Q09013)
# T17 construct: purchased DiscoveRx Corporation (KinomeScan)
# Outline: as §1
# PRKCI = target: T18, PRKCI (Homo sapiens, UniProt P41743)
# T18 construct: purchased DiscoveRx Corporation (KinomeScan)
# Outline: as §1
# PAK1 = target: T19, PAK1 (Homo sapiens, UniProt Q13153)
# T19 construct: purchased DiscoveRx Corporation (KinomeScan panel)
# Outline: as §1
# TYRO3 = target: T20, TYRO3 (Homo sapiens, UniProt Q06418)
# T20 construct: purchased DiscoveRx Corporation (KinomeScan service)
# Outline: as §1
# CLK4 = target: T21, CLK4 (Homo sapiens, UniProt Q9HAZ1)
# T21 construct: purchased DiscoveRx Corporation (KinomeScan)
# Outline: as §1
# CLK2 = target: T22, CLK2 (Homo sapiens, UniProt P49760)
# T22 construct: purchased DiscoveRx Corporation (KinomeScan)
# Outline: as §1
# CAMK2B = target: T23, CAMK2B (Homo sapiens, UniProt Q13554)
# T23 construct: purchased DiscoveRx Corporation (KinomeScan)
# Outline: as §1
# CDK8 = target: T24, CDK8 (Homo sapiens, UniProt P49336)
# T24 construct: purchased DiscoveRx Corporation (KinomeScan)
# Outline: as §1
# [3] = target: T25, TYK2(JH1domain-catalytic) (Homo sapiens, UniProt P29597)
# T25 construct: JH1domain; purchased DiscoveRx Corporation (KinomeScan)
# Outline: as §1
# RIPK1 = target: T26, RIPK1 (Homo sapiens, UniProt Q13546)
# T26 construct: purchased DiscoveRx Corporation
# Outline: as §1
# [4] = target: T27, RSK1(Kin.Dom.2-C-terminal) (Homo sapiens, UniProt Q15418)
# T27 construct: Kin.Dom.2; purchased DiscoveRx Corporation
# Outline: as §1
# LRRK2 = target: T28, LRRK2 (Homo sapiens, UniProt Q5S007)
# T28 construct: purchased DiscoveRx Corporation (KinomeScan)
# Outline: as §1
# [5] = target: T29, RSK4(Kin.Dom.2-C-terminal) (Homo sapiens, UniProt Q9UK32)
# T29 construct: Kin.Dom.2; purchased DiscoveRx Corporation (KinomeScan)
# Outline: as §1
# ERK3 = target: T30, ERK3 (Homo sapiens, UniProt Q16659)
# T30 construct: purchased DiscoveRx Corporation (KinomeScan)
# Outline: as §1
# MLK3 = target: T31, MLK3 (Homo sapiens, UniProt Q16584)
# T31 construct: purchased DiscoveRx Corporation (KinomeScan)
# Outline: as §1
# CDKL5 = target: T32, CDKL5 (Homo sapiens, UniProt O76039)
# T32 construct: purchased DiscoveRx Corporation (KinomeScan)
# Outline: as §1
# MYO3A = target: T33, MYO3A (Homo sapiens, UniProt Q8NEV4)
# T33 construct: purchased DiscoveRx Corporation (KinomeScan)
# Outline: as §1
# FLT3(ITD) = tested on: FLT3(ITD)
# Outline: as §1
# EPHA4 = target: T34, EPHA4 (Homo sapiens, UniProt P54764)
# T34 construct: purchased DiscoveRx Corporation (KinomeScan)
# Outline: as §1
# T20 sequence (Q06418 41-890): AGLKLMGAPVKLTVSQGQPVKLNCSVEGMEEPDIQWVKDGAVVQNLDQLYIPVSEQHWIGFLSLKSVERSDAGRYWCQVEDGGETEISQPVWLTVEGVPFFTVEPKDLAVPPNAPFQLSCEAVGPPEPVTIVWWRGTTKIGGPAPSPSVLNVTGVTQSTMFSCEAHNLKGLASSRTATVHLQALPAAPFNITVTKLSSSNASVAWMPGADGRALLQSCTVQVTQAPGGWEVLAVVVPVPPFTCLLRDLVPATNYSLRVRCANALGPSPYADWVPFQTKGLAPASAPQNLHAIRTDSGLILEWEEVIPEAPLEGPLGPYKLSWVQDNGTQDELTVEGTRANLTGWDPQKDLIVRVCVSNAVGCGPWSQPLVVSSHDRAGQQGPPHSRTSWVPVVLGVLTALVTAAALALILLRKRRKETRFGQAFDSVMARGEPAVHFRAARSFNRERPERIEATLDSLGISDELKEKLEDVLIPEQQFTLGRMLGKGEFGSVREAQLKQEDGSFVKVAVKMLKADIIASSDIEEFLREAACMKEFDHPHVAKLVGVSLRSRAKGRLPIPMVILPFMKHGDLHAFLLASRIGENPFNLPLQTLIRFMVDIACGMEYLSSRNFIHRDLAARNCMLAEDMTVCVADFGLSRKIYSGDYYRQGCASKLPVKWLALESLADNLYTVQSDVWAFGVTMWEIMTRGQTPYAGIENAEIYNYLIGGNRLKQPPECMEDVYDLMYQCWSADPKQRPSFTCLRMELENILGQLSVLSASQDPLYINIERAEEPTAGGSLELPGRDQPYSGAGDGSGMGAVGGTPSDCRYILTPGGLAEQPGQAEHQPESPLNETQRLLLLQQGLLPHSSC
# T27 sequence (Q15418 418-675 limits assumed): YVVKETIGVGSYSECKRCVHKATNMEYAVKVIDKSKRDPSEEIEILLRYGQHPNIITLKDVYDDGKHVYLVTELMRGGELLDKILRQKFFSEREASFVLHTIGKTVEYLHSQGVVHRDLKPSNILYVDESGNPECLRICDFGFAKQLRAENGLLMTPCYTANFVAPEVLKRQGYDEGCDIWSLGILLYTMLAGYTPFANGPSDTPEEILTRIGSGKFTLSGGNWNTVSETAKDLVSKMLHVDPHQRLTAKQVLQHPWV
# T22 sequence (P49760 whole entry): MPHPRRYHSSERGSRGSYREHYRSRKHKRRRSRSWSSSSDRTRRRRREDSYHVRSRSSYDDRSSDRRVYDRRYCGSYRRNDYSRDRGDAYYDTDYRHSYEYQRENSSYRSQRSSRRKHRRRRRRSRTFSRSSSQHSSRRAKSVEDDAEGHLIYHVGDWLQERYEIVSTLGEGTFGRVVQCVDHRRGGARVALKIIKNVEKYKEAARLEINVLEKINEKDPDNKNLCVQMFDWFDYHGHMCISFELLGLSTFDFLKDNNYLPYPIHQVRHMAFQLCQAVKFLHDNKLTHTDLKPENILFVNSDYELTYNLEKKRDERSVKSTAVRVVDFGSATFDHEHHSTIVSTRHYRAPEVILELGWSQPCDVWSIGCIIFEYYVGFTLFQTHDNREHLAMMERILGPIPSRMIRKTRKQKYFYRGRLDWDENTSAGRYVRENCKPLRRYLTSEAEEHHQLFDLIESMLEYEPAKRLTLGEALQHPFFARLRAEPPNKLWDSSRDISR
# T18 sequence (P41743 whole entry): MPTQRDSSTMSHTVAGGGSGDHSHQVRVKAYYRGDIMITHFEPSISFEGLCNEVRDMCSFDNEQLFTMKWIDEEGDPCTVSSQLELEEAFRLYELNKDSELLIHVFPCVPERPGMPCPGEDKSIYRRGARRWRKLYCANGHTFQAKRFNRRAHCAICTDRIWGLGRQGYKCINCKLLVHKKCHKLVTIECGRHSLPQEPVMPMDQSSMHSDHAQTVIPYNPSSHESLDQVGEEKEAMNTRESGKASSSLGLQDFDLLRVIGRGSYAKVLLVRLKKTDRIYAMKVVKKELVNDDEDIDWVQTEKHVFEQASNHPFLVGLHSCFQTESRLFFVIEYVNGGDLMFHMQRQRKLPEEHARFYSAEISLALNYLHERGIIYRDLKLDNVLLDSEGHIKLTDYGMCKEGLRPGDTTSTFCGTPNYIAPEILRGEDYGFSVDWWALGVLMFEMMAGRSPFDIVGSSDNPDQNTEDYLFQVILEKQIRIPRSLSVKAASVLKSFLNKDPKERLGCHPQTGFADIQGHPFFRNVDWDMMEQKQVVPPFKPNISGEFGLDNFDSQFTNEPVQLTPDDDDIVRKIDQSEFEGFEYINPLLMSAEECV
# T15 sequence (Q05397 whole entry): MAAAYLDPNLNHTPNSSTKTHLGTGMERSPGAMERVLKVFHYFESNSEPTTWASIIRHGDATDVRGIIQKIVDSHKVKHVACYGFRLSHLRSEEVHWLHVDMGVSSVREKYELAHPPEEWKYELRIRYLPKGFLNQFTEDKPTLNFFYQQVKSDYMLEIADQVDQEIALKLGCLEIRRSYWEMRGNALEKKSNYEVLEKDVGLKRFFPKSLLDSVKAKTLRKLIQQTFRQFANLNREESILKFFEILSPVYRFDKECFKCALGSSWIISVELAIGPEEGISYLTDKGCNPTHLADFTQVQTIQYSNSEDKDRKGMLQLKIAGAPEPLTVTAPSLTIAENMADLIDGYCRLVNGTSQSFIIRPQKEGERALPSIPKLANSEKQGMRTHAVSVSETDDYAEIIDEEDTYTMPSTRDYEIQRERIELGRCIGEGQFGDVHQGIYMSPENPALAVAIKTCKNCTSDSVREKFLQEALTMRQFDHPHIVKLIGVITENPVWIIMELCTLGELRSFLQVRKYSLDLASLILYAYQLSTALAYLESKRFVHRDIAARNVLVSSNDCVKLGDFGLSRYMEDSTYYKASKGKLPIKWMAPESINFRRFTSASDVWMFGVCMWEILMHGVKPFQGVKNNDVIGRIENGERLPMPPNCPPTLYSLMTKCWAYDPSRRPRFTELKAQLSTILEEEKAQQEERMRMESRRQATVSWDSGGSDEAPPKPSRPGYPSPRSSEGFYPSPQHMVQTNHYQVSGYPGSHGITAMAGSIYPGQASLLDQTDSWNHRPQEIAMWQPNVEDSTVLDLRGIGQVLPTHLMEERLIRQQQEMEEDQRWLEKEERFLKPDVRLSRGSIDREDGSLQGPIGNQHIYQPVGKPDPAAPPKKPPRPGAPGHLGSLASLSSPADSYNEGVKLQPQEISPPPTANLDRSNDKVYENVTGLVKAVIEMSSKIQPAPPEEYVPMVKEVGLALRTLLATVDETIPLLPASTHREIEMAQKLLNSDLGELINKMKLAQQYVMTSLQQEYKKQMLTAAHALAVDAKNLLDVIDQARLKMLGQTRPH
# T2 sequence (Q7L7X3 whole entry): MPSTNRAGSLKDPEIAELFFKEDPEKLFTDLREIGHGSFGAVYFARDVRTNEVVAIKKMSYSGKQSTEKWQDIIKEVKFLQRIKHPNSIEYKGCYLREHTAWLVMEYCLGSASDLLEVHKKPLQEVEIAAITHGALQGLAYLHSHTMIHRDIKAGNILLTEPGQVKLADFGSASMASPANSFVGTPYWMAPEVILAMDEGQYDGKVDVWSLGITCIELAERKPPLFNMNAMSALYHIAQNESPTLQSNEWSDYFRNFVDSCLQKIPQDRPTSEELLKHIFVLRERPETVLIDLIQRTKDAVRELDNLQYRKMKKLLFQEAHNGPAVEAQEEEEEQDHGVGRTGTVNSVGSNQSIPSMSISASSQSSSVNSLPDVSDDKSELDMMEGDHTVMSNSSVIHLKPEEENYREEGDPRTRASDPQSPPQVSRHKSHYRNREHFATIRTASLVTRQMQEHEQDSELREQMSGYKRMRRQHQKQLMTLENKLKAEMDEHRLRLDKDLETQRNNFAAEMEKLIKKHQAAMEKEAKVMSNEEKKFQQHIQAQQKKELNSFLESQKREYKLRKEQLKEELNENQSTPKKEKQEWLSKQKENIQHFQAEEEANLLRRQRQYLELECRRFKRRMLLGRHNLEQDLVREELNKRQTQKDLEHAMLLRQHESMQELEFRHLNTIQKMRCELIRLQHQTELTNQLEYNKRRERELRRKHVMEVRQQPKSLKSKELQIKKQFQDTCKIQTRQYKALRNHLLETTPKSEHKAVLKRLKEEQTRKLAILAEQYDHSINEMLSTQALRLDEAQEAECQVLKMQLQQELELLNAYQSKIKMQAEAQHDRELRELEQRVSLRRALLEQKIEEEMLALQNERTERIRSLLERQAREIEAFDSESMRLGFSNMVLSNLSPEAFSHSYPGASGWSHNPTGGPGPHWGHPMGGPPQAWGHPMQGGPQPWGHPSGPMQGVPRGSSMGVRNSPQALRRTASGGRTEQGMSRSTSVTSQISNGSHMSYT
# T12 sequence (Q04771 21-509): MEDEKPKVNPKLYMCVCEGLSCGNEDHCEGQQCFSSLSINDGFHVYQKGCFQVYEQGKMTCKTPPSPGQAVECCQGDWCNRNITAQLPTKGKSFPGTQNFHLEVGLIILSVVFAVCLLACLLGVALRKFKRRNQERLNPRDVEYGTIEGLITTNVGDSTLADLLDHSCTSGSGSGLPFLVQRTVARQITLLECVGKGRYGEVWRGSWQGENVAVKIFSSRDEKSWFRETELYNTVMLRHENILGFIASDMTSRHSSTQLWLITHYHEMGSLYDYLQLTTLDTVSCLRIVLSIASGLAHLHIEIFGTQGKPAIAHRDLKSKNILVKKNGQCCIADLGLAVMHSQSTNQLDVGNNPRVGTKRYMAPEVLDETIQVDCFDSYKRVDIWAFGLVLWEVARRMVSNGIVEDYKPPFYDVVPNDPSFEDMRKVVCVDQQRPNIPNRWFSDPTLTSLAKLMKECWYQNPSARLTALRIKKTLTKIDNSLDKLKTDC
# T6 sequence (O75582 49-318 limits assumed): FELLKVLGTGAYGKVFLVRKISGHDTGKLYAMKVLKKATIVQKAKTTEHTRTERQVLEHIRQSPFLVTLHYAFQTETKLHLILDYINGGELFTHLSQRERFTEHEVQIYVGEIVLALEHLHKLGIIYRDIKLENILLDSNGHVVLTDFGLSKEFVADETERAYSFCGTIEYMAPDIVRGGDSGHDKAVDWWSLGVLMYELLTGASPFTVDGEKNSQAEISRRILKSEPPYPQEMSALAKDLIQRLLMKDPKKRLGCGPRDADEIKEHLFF
smiles,measurement,setting,value
"CCOP(=O)(CN1CCC(COc2cc3nccc(Oc4ccc(NC(=O)C5(C(=O)Nc6ccc(F)cc6)CC5)cc4F)c3cc2OC)CC1)OCC [Example 10, N1-[4-[[7-[[1-(diethoxyphosphorylmethyl)-4-piperidinyl]methoxyl]-6-methoxyl-4-quinolyl]oxyl]-3-fluorophenyl]-N1′-(4-fluorophenyl)cyclopropane-1,1-dicarboxamide]",% Ctrl@1000 nM,PIK4CB,100 % Ctrl
same,% Ctrl@1000 nM,TAOK1,100 % Ctrl
same,% Ctrl@1000 nM,NEK5,97 % Ctrl
same,% Ctrl@1000 nM,NEK4,100 % Ctrl
same,% Ctrl@1000 nM,BRSK2,100 % Ctrl
same,% Ctrl@1000 nM,[1],100 % Ctrl
same,% Ctrl@1000 nM,[2],75 % Ctrl
same,% Ctrl@1000 nM,AURKA,100 % Ctrl
same,% Ctrl@1000 nM,MUSK,13 % Ctrl
same,% Ctrl@1000 nM,MAP3K3,100 % Ctrl
same,% Ctrl@1000 nM,FGFR1,100 % Ctrl
same,% Ctrl@1000 nM,ACVR1,100 % Ctrl
same,% Ctrl@1000 nM,ACVRL1,100 % Ctrl
same,% Ctrl@1000 nM,GSK3A,100 % Ctrl
same,% Ctrl@1000 nM,FAK,51 % Ctrl
same,% Ctrl@1000 nM,SIK2,100 % Ctrl
same,% Ctrl@1000 nM,DMPK,85 % Ctrl
same,% Ctrl@1000 nM,PRKCI,100 % Ctrl
same,% Ctrl@1000 nM,PAK1,37 % Ctrl
same,% Ctrl@1000 nM,TYRO3,41 % Ctrl
same,% Ctrl@1000 nM,CLK4,46 % Ctrl
same,% Ctrl@1000 nM,CLK2,78 % Ctrl
same,% Ctrl@1000 nM,CAMK2B,100 % Ctrl
same,% Ctrl@1000 nM,CDK8,76 % Ctrl
same,% Ctrl@1000 nM,[3],92 % Ctrl
same,% Ctrl@1000 nM,RIPK1,99 % Ctrl
same,% Ctrl@1000 nM,[4],100 % Ctrl
same,% Ctrl@1000 nM,LRRK2,100 % Ctrl
same,% Ctrl@1000 nM,[5],91 % Ctrl
same,% Ctrl@1000 nM,ERK3,100 % Ctrl
same,% Ctrl@1000 nM,MLK3,63 % Ctrl
same,% Ctrl@1000 nM,CDKL5,100 % Ctrl
same,% Ctrl@1000 nM,MYO3A,93 % Ctrl
same,% Ctrl@1000 nM,FLT3(ITD),2.8 % Ctrl
same,% Ctrl@1000 nM,EPHA4,4 % Ctrl

# Source: patent US8933230B2, “Phosphorus-containing group-substituted quinoline, its preparation process, medical composition containing the compounds and application” (priority 2011, dated 2015)
